Where a SMILES comes first, the peptide text is derived from it.
Legend:
Type in all cases: in vivo, human
sweet taste [1] = assay: Structure activity example, tasting of analogues (Example 11); conditions: when tasted
Text: During our invention process, we observed repeatedly that a small structural difference can cause dramatic change in the taste. For example, compound N-(2-methylcyclohexyl)-2,3,4,5,6-pentafluoro-benzamide is very sweet; moving the methyl group to the 4-position render the resulting N-(4-methylcyclohexyl)-2,3,4,5,6-pentafluoro-benzamide bitter; moving the methyl group to nitrogen render the resulting N-cyclohexyl-2,3,4,5,6-pentafluoro-N-methyl-benzamide tasteless.
There is however an underlying theme, that being that an amide functionality is important.

sweet taste [2] = assay: Sweetness enhancement of an 8 brix beverage, trained technical panel (Example 14); conditions: 4 ppm in 8 brix beverage; for sweet intensity rating: ten point scale, nine most sweetness, zero no sweetness
Method: An 8 brix, the measurement of the mass ratio of dissolved sugar in a liquid, beverage was prepared to evaluate two sweeteners, 2,3,5,6-tetrafluoro-4-methyl-N-(2-methylcyclohexyl)benzamide-(sweetener A) and N-(2-methylcyclohexyl)-2,3,4,5,6 pentafluoro-benzamide)—(sweetener B). The objective was to determine if the sweeteners enhanced an 8 brix beverage to make it taste more similar to a 10 brix beverage. There were four samples evaluated an 8 brix beverage blank, sweetener A in 8 brix beverage, sweetener B in 8 brix beverage and a 10 brix beverage blank. Both the sweeteners were evaluated at 4 ppm. The beverage samples were evaluated by a trained technical panel. The panel evaluated the sweetness profile and the sweet intensity. The intensity was rated on a ten point scale with nine being the most sweetness and zero having no sweetness. […] The sweet intensity ratings were as follows (see Table 2) sample A rated 6, sample B rated 7, sample C rated 9 and sample D rated 9.

sweet taste [3] = assay: Sweetness in muffins, trained technical panel (second Example 14); conditions: 10 ppm in muffin; for sweetness intensity rating: scale 0-9, 9 most sweetness
Method: The sweeteners 2,3,5,6-tetrafluoro-4-methyl-N-(2-methylcyclohexyl)benzamide (sweetener A) and N-(2-methylcyclohexyl)-2,3,4,5,6 pentafluoro-benzamide -(sweetener B) were both evaluated in muffins. They were evaluated along with a blank muffin sample. Both sweeteners were evaluated at 10 ppm in the muffin. The samples were evaluated by a trained technical panel. They were asked to evaluate the profile and to give a rating between 0-9 on the sweetness intensity. The rating scale ranged from zero for no sweetness to 9 for the most sweetness. […] The samples were rating on sweet intensity (see Table 3). The samples ratings were as follows; sample A rated 5, sample B rated 6, sample C rated 8.

sweet taste [4] = assay: Cola beverage containing Aspartame, trained technical panel (Example 15); conditions: for sweetness profile rating: scale 0-9, 9 the best
Method: The sweeteners Benzamide, 2,3,5,6-[…]-4-methyl-N-(2-methylcyclohexyl)—(sweetener A) and Benzamide, 2,3,4,5,6-pentafluoro-N-(2-methylcyclohexyl)—(sweetener B) were both evaluated in a cola beverage that contained Aspartame. The purpose of this experiment was to evaluate the sweeteners profile in a sweetener blend. There were three separate samples evaluated, see Table 3. The samples were evaluated by a trained technical panel. The sweetness profile was rated on a scale from 0-9, with 0 being the worst and 9 the best. The first sample, Sample A, containing only aspartame at 300 ppm was rated a 4. […] The second sample, Sample B, contained Aspartame at 300 ppm and sweetener A at 3 ppm. […] The rating for sample B was a 9 for sweetness. The third sample, sample C, contained Aspartame at 300 ppm and sweetener B at 3 ppm.

sweet taste [5] = assay: Comparison of sweetness at 5 ppm in plain water (Example 13)
Method: Two molecules were compared to each other based on sweetness. Both molecules were evaluated at 5 ppm in plain water.

sweet taste [6] = assay: Sweetener blends with Ace-K or Sucralose, trained technical panel (Example 16); conditions: for overall group rating: scale 1-9, 9 the best; for blend rating: scale 1 to 9
Method: A comparison of the synergistic effects the Benzamide, 2,3,4,5,6-Pentafluoro-N-(2-methylcyclohexyl)—(sweetener A) in combination with acesulfame-k, herein referred to as Ace-K and Sucralose was compared with the effects of Benzamide, 2,3,5,6-tetrafluoro-4-methyl-N-(2-methylcyclohexyl)—(sweetener B) in combination with the same commercial sweeteners. The samples were evaluated by a trained technical panel. The first sample was Ace-K at 100 ppm.
A similar evaluation with done with Sucralose as the commercial sweetener. An evaluation of Sucralose at 60 ppm was done in plain water. […] A comparison of the synergistic effects of sweetener A at 3 ppm in combination with Sucralose at 60 ppm was evaluated against sweetener B in the same combination. […] The blends were evaluated on a scale for 1 to 9.

sweet taste [7] = assay: Comparisons of taste quality and intensity, solutions in water (Example 12, Table I); conditions: for Other taste attributes: in vivo
Text: Sweetness is rapid and fades quickly on rinsing of the mouth.

[8] = 3 ppm with Aspartame 300 ppm in cola beverage
[9] = 3 ppm in combination with Ace-K at 100 ppm
[10] = 3 ppm in combination with Sucralose at 60 ppm
[11] = Aspartame 300 ppm only in cola beverage

In the case of `CC1CCCCC1OC(=O)c1c(F)c(F)c(F)c(F)c1F` (stereo not shown) [2,3,4,5,6-pentafluorobenzoic acid 2-methylcyclohexyl ester], the taste (sweet taste [1]) is reported as “burning sensation”.
`Cc1c(F)c(F)c(C(=O)NC2CCCCC2C)c(F)c1F` (stereo not shown) [2,3,5,6-tetrafluoro-4-methyl-N-(2-methylcyclohexyl)benzamide] was tested, and the sweetness profile comments (sweet taste [2]) was “sour and slightly sweeter than the 8 brix blank”, the sweet intensity rating (sweet taste [2]) was 7 and the profile description (sweet taste [3]) was “slightly sweet, not much difference in profile to the blank muffin sample”. For the same molecule, the sweetness intensity rating (sweet taste [3]) was 6, the sweetness comments (sweet taste [4]; [8]) was “sweetness was well rounded, lingered, and gave mouthfeel” and the sweetness profile rating (sweet taste [4]; [8]) was 9. For the same molecule, the taste description (sweet taste [5]) was “mild vegetative, green and very bitter with some sugary notes”, the taste comments (sweet taste [6]; [9]) was “delayed sweetness, astringency, not as strong a sweetness as the combination with sweetener A” and the overall group rating (sweet taste [6]; [9]) was 7. The taste comments (sweet taste [6]; [10]) was “not as sweet as the combination with sweetener A, delayed sweetness” and the blend rating (sweet taste [6]; [10]) was 7.
`O=C(N[C@H]1CCCc2ccccc21)c1ccoc1` (single isomer, unassigned) [1S isomer, reference compound] showed an Other taste attributes (sweet taste [7]) of 1S isomer is tasteless.
With `CC1CCCCC1NC(=O)c1c(F)c(F)c(F)c(F)c1F` (stereo not shown) [Example 6, N-(2-methylcyclohexyl)-2,3,4,5,6-pentafluoro-benzamide] the sweetness profile comments (sweet taste [2]) was “sweeter, more mouthwatering, had a slight astringent aftertaste and had a similar sweetness profile to the 10 brix beverage”, the sweet intensity rating (sweet taste [2]) was 9 and the profile description (sweet taste [3]) was “sweeter, long lasting sweetness and mouthwatering”. The sweetness intensity rating (sweet taste [3]) was 8, the taste (sweet taste [1]) was “very sweet” and the sweetness comments (sweet taste [4]; [8]) was “sweetness had more impact than Sample A, but not as intense as Sample B”. For the same molecule, the sweetness profile rating (sweet taste [4]; [8]) was 6, the taste description (sweet taste [5]) was “mouth coating, intense sweet, no bitter notes, and had a fast sweetness onset” and the taste comments (sweet taste [6]; [9]) was “strong sweetness upfront, bitter, enhanced bitterness in combination”. The overall group rating (sweet taste [6]; [9]) was 9, the taste comments (sweet taste [6]; [10]) was “enhanced sweetness, more rounded, no bitter, very strong sweet profile” and the blend rating (sweet taste [6]; [10]) was 9. For the same molecule, the “equal in sweetness to sucrose” value (sweet taste [7]; 1 ppm in water) was 1-2 % sucrose, the taste description (sweet taste [7]; 1 ppm in water) was “sweetness is not immediate but builds after a few seconds but is very clean, lacking bitterness, off-taste or negative attribute” and the “rated as sweet as sucrose” value (sweet taste [7]; 4% sucrose plus 1 ppm in water) was 8 % sucrose. The taste description (sweet taste [7]; 4% sucrose plus 1 ppm in water) was “longer lasting and considered to be quite acceptable sweet character lacking bitterness”, the taste description (sweet taste [7]; 4% sucrose plus 5 ppm in water) was “too sweet and too long lasting” and the “equal in strength to sucrose” value (sweet taste [7]; 5 ppm in water) was 4-6 % sucrose. The “sweet character lasts longer than sucrose” value (sweet taste [7]; 5 ppm in water) was “up to 10 times longer”, the taste description (sweet taste [7]; 5 ppm in water) was “sweetness is not immediate but is very clean, lacking bitterness, off-taste or negative attribute” and the Other taste attributes (sweet taste [7]) was “Clean”. For the same molecule, the “effect in combination with sucrose” value (sweet taste [7]; low concentrations <4 ppm) was “synergistic effect with sucrose”.
In the case of `Cc1cc(C)c(C(=O)NC(C)C(C)(C)C)c(C)c1` (stereo not shown) [Example 2, 2,4,6-trimethyl-N-(1,2,2-trimethylpropyl)-benzamide], the Other taste attributes (sweet taste [7]) is reported as “Clean”.
`CC1=CC(=O)[N-]S(=O)(=O)O1.[K+]` [Ace-K, acesulfame-k] was tested, and the taste comments (sweet taste [6]; Ace-K at 100 ppm alone) was “delayed sweetness, some off notes, astringent and bitter”.
For `Cc1c(F)c(F)c(C(=O)N[C@H](C)C2CCCCC2)c(F)c1F` [Compound 40, (R)-N-1-cyclohexylethyl-2,3,5,6-tetrafluoro-4-methyl-benzamide], the Other taste attributes (sweet taste [7]) was “Bitter at 20 ppm” and the Profile (sweet taste [7]; sweetness onset and duration relative to sucrose) was “Poor sweet taste profile”.
In the case of `OC[C@H]1O[C@H](O[C@]2(CCl)O[C@H](CCl)[C@@H](O)[C@@H]2O)[C@H](O)[C@@H](O)[C@H]1Cl` [Sucralose], the taste comments (sweet taste [6]; Sucralose at 60 ppm alone in plain water) is reported as “sweet onset, mouthwatering, sweetness lingers”.
In the case of `OC[C@H]1O[C@@](CO)(O[C@H]2O[C@H](CO)[C@@H](O)[C@H](O)[C@H]2O)[C@@H](O)[C@@H]1O` [Sucrose, reference compound], the taste description (sweet taste [7]; 4% sucrose in water) is reported as “moderate sweetness and mouthfeel” and the taste description (sweet taste [7]; 8% sucrose in water) is reported as “good level sweetness and excellent mouthfeel”.
In the case of `O=C(N[C@@H]1CCCc2ccccc21)c1ccoc1` [N-[(1R)-1,2,3,4-tetrahydro-1-naphthalenyl]-3-furancarboxamide, reference compound], the Other taste attributes (sweet taste [7]) is reported as “Clean”.
`COC(=O)[C@H](Cc1ccccc1)NC(=O)[C@@H](N)CC(=O)O` [Aspartame] (H-Asp-Phe-OMe) was tested, and the sweetness comments (sweet taste [4]; [11]) was “sweetness in the beverage spiked and then disappeared” and the sweetness profile rating (sweet taste [4]; [11]) was 4.
With `CC(C)C(C)NC(=O)c1c(F)c(F)c(F)c(F)c1F` (stereo not shown) [Compound 53, N-(1,2-dimethylpropyl)-2,3,4,5,6-pentafluoro-benzamide] the Other taste attributes (sweet taste [7]) was “Clean”.
In the case of `CC1CCC(NC(=O)c2c(F)c(F)c(F)c(F)c2F)CC1` (stereo not shown) [N-(4-methylcyclohexyl)-2,3,4,5,6-pentafluoro-benzamide], the taste (sweet taste [1]) is reported as “bitter”.
In the case of `Cc1c(F)c(F)c(C(=O)NC(C)C(C)C)c(F)c1F` (stereo not shown) [2,3,5,6-tetrafluoro-4-methyl-N-(1,2-Dimethyl-propyl)benzamide, reference compound], the Other taste attributes (sweet taste [7]) is reported as “Clean”.
In the case of `CN(C(=O)c1c(F)c(F)c(F)c(F)c1F)C1CCCCC1` [N-cyclohexyl-2,3,4,5,6-pentafluoro-N-methyl-benzamide], the taste (sweet taste [1]) is reported as “tasteless”.
